Like-named read-outs stand apart in the source and are kept apart here.
What was measured:
[1] = tested on: isolated rat cardiac mitochondria; test: ROS/RONS formation in isolated mitochondria (L-012 chemiluminescence); format: biochemical
Source text: Reactive oxygen and nitrogen species formation in response to in vitro challenge of isolated rat cardiac mitochondria based on reaction of the chemiluminescence dye L-012 (a luminal analogue), Example 3, Table 2. X-axis: compounds tested with concentration [μM]; y-axis: photons n per 1 sec of emission of chemiluminescence light (ECL).
Vascular oxidative stress is a well-known side effect of nitrate tolerance (an adverse condition that develops under chronic nitrate therapy). Therefore, the induction of reactive oxygen and nitrogen species formation in response to in vitro challenges with the test compounds was assessed in isolated mitochondria according to a published procedure [Daiber, A. et al., Mol Pharmacol 66 (2004), 1372-1382; Daiber, A. et al., Biochem Biophys Res Commun 338 (2005), 1865-1874; Daiber, A. et al., Mol Pharmacol 68 (2005), 579-588]. The assay is based on the reaction of the chemiluminescence dye L-012 (a luminol analogue) with reactive oxygen and nitrogen species (RONS, e.g. superoxide anion radicals, peroxynitrite anions or nitrogen dioxide radicals) and subsequent emission of chemiluminescence light (ECL). The signal is counted in photons/time (=counts/30s). The data are based on experiments with cardiac mitochondria from at least 6 rats on 3 different days.

[2] = tested on: rat aortic ring segments preconstricted with phenylephrine; test: Isometric tension studies: vasodilation of preconstricted rat aortic ring segments; format: cell-based; details: for EC50: read-out: pD2-value (vasodilatory potency) (converted)
Experimental: Vasodilation of rat aortic ring segments preconstricted with phenylephrine, Example 2, Table 1. X-axis: relaxation in %; y-axis: log concentration (log M).
For in vitro characterization of the new pioglitazone nitrate (1) of Example 1, vasodilatory potency was determined by isometric tension studies. According to a published procedure rat aortic ring segments were preconstricted by the alpha-receptor-agonist phenylephrine [Daiber, A. et al., Mol Pharmacol 66 (2004), 1372-1382; Wendt, M. et al., Free Radic Biol Med 39 (2005), 381-391; Munzel, T. et al., J Clin Invest 95 (1995), 187-194]. After reaching a stable preconstriction of vascular tone, the vessels were dose-dependently vasodilated until the final tone at the highest added concentration of the vasodilator was reached. The vasodilators were added at half-logarithmic concentrations starting at 10^−8 M (=10 nanomolar). Vasodilatory potency was compared creating a concentration-relaxation curve. The data are based on experiments with aorta from at least 6 rats on 3 different days.

[3] = rat aortic rings preconstricted with phenylephrine, concentration-relaxation curve
[4] = rat aortic rings preconstricted with phenylephrine

O=[N+]([O-])OCC(CO[N+](=O)[O-])O[N+](=O)[O-] [Glycerol trinitrate]
ROS formation, Mean ([1]; Conc. 10 μM, basal 627.7): 597.7 counts/1 s | ROS formation, Mean ([1]; Conc. 100 μM, basal 627.7): 898.5 counts/1 s | ROS formation, Mean ([1]; Conc. 1000 μM, basal 627.7): 2762 counts/1 s

O=[N+]([O-])O[C@@H]1CO[C@H]2[C@@H]1OC[C@@H]2O [ISMN, Isosorbide-5-mononitrate]
Isometric tension, relaxation (Mean ± SEM) ([2]; Log [M] −2): 98.77 ± 0.75% | Isometric tension, relaxation (Mean ± SEM) ([2]; Log [M] −2.5): 94.91 ± 1.28% | Isometric tension, relaxation (Mean ± SEM) ([2]; Log [M] −3): 82.81 ± 3.45% | Isometric tension, relaxation (Mean ± SEM) ([2]; Log [M] −3.5): 64.17 ± 4.11% | Isometric tension, relaxation (Mean ± SEM) ([2]; Log [M] −4): 43.46 ± 3.28% | Isometric tension, relaxation (Mean ± SEM) ([2]; Log [M] −4.5): 16.76 ± 2.29% | Isometric tension, relaxation (Mean ± SEM) ([2]; Log [M] −5): 9.29 ± 2.23% | Isometric tension, relaxation (Mean ± SEM) ([2]; Log [M] −5.5): 5.47 ± 1.95% | Isometric tension, relaxation (Mean ± SEM) ([2]; Log [M] −6): 3.73 ± 1.39% | Isometric tension, relaxation (Mean ± SEM) ([2]; Log [M] −6.5): 3.86 ± 1.04% | Isometric tension, relaxation (Mean ± SEM) ([2]; Log [M] −7): 0%

O=C(NCCO[N+](=O)[O-])OCCl [Linker 2, chloromethyl N-2-nitrooxyethylcarbamate]
Isometric tension, relaxation (Mean ± SEM) ([2]; Log [M] −3.5): 96.18 ± 2.20% | Isometric tension, relaxation (Mean ± SEM) ([2]; Log [M] −4): 91.00 ± 5.36% | Isometric tension, relaxation (Mean ± SEM) ([2]; Log [M] −4.5): 86.66 ± 6.04% | Isometric tension, relaxation (Mean ± SEM) ([2]; Log [M] −5): 80.97 ± 6.47% | Isometric tension, relaxation (Mean ± SEM) ([2]; Log [M] −5.5): 68.37 ± 6.89% | Isometric tension, relaxation (Mean ± SEM) ([2]; Log [M] −6): 51.19 ± 6.35% | Isometric tension, relaxation (Mean ± SEM) ([2]; Log [M] −6.5): 30.73 ± 5.12% | Isometric tension, relaxation (Mean ± SEM) ([2]; Log [M] −7): 16.85 ± 3.29% | Isometric tension, relaxation (Mean ± SEM) ([2]; Log [M] −7.5): 8.25 ± 2.09% | Isometric tension, relaxation (Mean ± SEM) ([2]; Log [M] −8): 0% | pD2-value (vasodilatory potency) [2, 3]: approximately 6 | ROS formation, Mean ([1]; Conc. 10 μM, basal 627.7): 622.5 counts/1 s | ROS formation, Mean ([1]; Conc. 100 μM, basal 627.7): 674.7 counts/1 s | ROS formation, Mean ([1]; Conc. 1000 μM, basal 627.7): 1395.8 counts/1 s | Effect on RONS formation, result in words ([1]; in vitro challenge of isolated rat cardiac mitochondria): has also some increasing effect

CCc1ccc(CCOc2ccc(CC3SC(=O)NC3=O)cc2)nc1 (racemic) [Pioglitazone]
Isometric tension, relaxation (Mean ± SEM) ([2]; Log [M] −3.5): 55.47 ± 5.98% | Isometric tension, relaxation (Mean ± SEM) ([2]; Log [M] −4): 22.40 ± 3.34% | Isometric tension, relaxation (Mean ± SEM) ([2]; Log [M] −4.5): 11.19 ± 3.82% | Isometric tension, relaxation (Mean ± SEM) ([2]; Log [M] −5): 8.30 ± 3.49% | Isometric tension, relaxation (Mean ± SEM) ([2]; Log [M] −5.5): 5.63 ± 3.15% | Isometric tension, relaxation (Mean ± SEM) ([2]; Log [M] −6): 5.40 ± 2.88% | Isometric tension, relaxation (Mean ± SEM) ([2]; Log [M] −6.5): 4.14 ± 2.57% | Isometric tension, relaxation (Mean ± SEM) ([2]; Log [M] −7): 3.42 ± 1.68% | Isometric tension, relaxation (Mean ± SEM) ([2]; Log [M] −7.5): 2.92 ± 1.49% | Isometric tension, relaxation (Mean ± SEM) ([2]; Log [M] −8): 0% | Vasodilatory potency, result in words [2, 4]: weak relaxing effects | EC50 [2, 3]: ~316 µM | ROS formation, Mean ([1]; rat, 10 μM): 563 counts/1 s | ROS formation, Mean ([1]; rat, 100 μM): 874.5 counts/1 s | ROS formation, Mean ([1]; rat, 1000 μM): 801.7 counts/1 s

CCc1ccc(CCOc2ccc(CC3SC(=O)N(COC(=O)NCCO[N+](=O)[O-])C3=O)cc2)nc1 (stereo not drawn) [compound 1]
Isometric tension, relaxation (Mean ± SEM) ([2]; Log [M] −3.5): 98.13 ± 5.98% | Isometric tension, relaxation (Mean ± SEM) ([2]; Log [M] −4): 87.22 ± 3.34% | Isometric tension, relaxation (Mean ± SEM) ([2]; Log [M] −4.5): 79.07 ± 3.82% | Isometric tension, relaxation (Mean ± SEM) ([2]; Log [M] −5): 70.11 ± 3.49% | Isometric tension, relaxation (Mean ± SEM) ([2]; Log [M] −5.5): 57.49 ± 3.15% | Isometric tension, relaxation (Mean ± SEM) ([2]; Log [M] −6): 43.34 ± 2.88% | Isometric tension, relaxation (Mean ± SEM) ([2]; Log [M] −6.5): 27.72 ± 2.57% | Isometric tension, relaxation (Mean ± SEM) ([2]; Log [M] −7): 12.82 ± 1.68% | Isometric tension, relaxation (Mean ± SEM) ([2]; Log [M] −7.5): 2.65 ± 1.49% | Isometric tension, relaxation (Mean ± SEM) ([2]; Log [M] −8): 0% | Vasodilatory potency, result in words [2, 4]: even more active than isosorbide dinitrate | EC50 [2, 3]: ~1 µM | Effect on RONS formation, result in words [1]: does not have a pronounced effect on RONS formation | ROS formation, Mean ([1]; rat, 10 μM): 697.3 counts/1 s | ROS formation, Mean ([1]; rat, 100 μM): 609.8 counts/1 s | ROS formation, Mean ([1]; rat, 1000 μM): 889.2 counts/1 s

Reference: patent US8703800B2, “Nitrate and diazeniumdiolate derivatives of pioglitazone” (Cardiolynx AG, priority 2010, dated 2014)
